Patent US12433873B2, “Microtubule polymerization inhibitor prodrugs and methods of using the same” (University of Maryland, Baltimore, priority 2017, dated 2025)
Entries after “also recorded” stand apart in the source; their conditions may differ.

Tests used:
OCY-293 cells = assay: In vitro microtubule destabilization in OCY-293 cells stably expressing GFP-tubulin; format: cell-based; conditions: 10-120 minutes, 0.3-100 μM
Procedure: Cell treatment: OCY-293 cells stably expressing GFP-tubulin were cultured in 96-well plates at 37° C. in modified DMEM. […] Control cells were treated with vehicle. DAPI was added to each well to identify the nuclei. At each time point, cells were fixed with 4% paraformaldehyde and stored at 4° C. in the dark until imaging.
Imaging and Analysis: Cells were imaged to assess microtubule structure using fluorescence microscopy (Nikon TIe) with 5 images taken in different locations of each well. The images were digitized in two channels (GFP to visualize tubulin, and therefore microtubules; and DAPI to visualize nuclei). The microtubule area was traced, and nuclei were counted using predictive software (Nikon Elements v4.51) via unbiased automated measurements of each image in each of the wells. The microtubule area was normalized to the number of nuclei.

mdx muscle fibers = assay: X-ROS, Ca2+ signaling and microtubule density in mdx muscle fibers in vitro; format: cell-based, mouse
Text: FIGS. 1A-1E illustrate that microtubules underlie dysfunction in DMD. Aggregate DFF signals from WT (Black; n=5) and mdx (Red; n=6) muscle fibers (FIG. 1A). Mean values from A show a significant increase in X-ROS in the mdx (*p<0.05) that is blunted by colchicine (FIG. 1B). X-ROS leads to Ca^2+ influx that is blocked by microtubule depolymerization (FIG. 1C). Microtubule density is elevated in mdx fibers and reduced by colchicine (FIGS. 1D and 1E).
In murine DMD (mdx), it has been discovered that disease-driven alterations in microtubule network density and properties underscore the deleterious excess of Nox2-ROS and Ca^2+ signals in skeletal muscle and heart. Using colchicine, a drug that promotes microtubule depolymerization, it has been shown that reducing microtubule density normalized the dysregulated ROS and Ca^2+ signaling in DMD muscle fibers in vitro (see FIG. 1). […] The significance of these pre-clinical discoveries was bolstered by transcriptional evidence (RNASeq) for microtubule excess in muscle biopsy samples from affected DMD patients.

mdx mice [1] = assay: In vivo nerve evoked torque and eccentric injury of the gastrocnemius muscle in mdx mice; set-up: species or system mouse; conditions: 20 eccentric contractions of gastrocnemius, FIG. 2D
Procedure: FIGS. 2A-2D illustrate that targeting microtubule density in vivo is solely sufficient to decrease contraction-induced injury in mdx mice. Nerve evoked torque and eccentric injury of the gastrocnemius muscle in vivo (FIG. 2A). […] Normalized torque records of the initial (time=0; wild-type in black, mdx in red) and 20th (grey) eccentric contractions (FIG. 2C).
Skeletal Muscle Function. Evan's blue dye (EBD) (5 μg/μl solution in PBS; 5 μl/g body weight) can be injected I.P. 24 hrs before the assay. The in vivo assessment of the nerve evoked isometric force vs. stimulation frequency relationship of the gastrocnemius can be determined as described in the art. The maximal isometric force (post hoc normalized to estimated cross sectional area) can be taken as the measure of functional quality of the muscle. […]
Susceptibility to contraction injury (skeletal muscle) can be assessed across each treatment cohort. As in FIG. 2, the % force deficit after 20 eccentric contractions of the gastrocnemius muscle can be determined. […] Thirty minutes after the last eccentric contraction, blood (orbital sinus) can be collected and analyzed for creatine kinase (CK) activity. […] After the trials, the muscle tissue can be processed and % EBD positive fibers can be used to quantitate the extent of muscle damage at rest (uninjured leg) or with injury.

mdx mice [2] = assay: Isoproterenol cardiac stress test in mdx mice; format: in vivo, mouse
Procedure: FIGS. 5A-5D illustrate that colchicine blunts isoproterenol-induced cardiac damage in mdx and prevents cardiac arrhythmias. Wild-type and mdx mice were injected with Evan's blue dye one day prior then underwent an isoproterenol cardiac stress test and heart rate measured. […] Conversely, mdx mice cannot upregulate their heart rate to the same extent (˜2 fold) and only do so for a short period (30-45 min) before suffering severe arrhythmias and cardiac death, with only 10% survival.
Isoproterenol Cardiac Stress and Sarcolemmal Damage of the Heart. Catecholaminergic work-load stress induces atrial fibrillation (AF), ventricular tachycardia (VT) and sudden cardiac death (SCD) in mdx mice and this can be prevented by colchicine treatment (FIG. 5). To assess if colchicine pro-drugs prevent AF, VT and SCD, Evan's blue dye (EBD) (5 μg/μl solution in PBS; 5 μl/g body weight) can be injected I.P. 24 hrs before the assay. Mice are first anesthetized with sodium pentobarbital, and the heart rate monitored by a single-lead electrocardiogram. Isoproterenol is then used to pharmacologically increase the level of mechanical stress imposed on the heart. The mice are killed 3 hours after the administration of isoproterenol and the heart mounted in cryomatrix, sectioned and assessed for sarcolemmal damage.

[3] = cited from earlier work

Q: Which “microtubule depolymerization (microtubule area normalized to number of nuclei)” value (OCY-293 cells) does the source give for `COc1cc2c(c(OC)c1OC)-c1ccc(OC)c(=O)cc1[C@@H](N(C)C(=O)OC(C)OC(C)=O)CC2` (stereo partly shown) [compound 7] here?
A: The value was “delayed and reduced depolymerization at all concentrations”.

Q: With `COc1cc2c(c(OC)c1OC)-c1ccc(OC)c(=O)cc1[C@@H](NC(C)=O)CC2` [colchicine] as the compound, how does the “Microtubule density in mdx fibers” value (mdx muscle fibers; FIGS. 1D and 1E) read?
A: Its value is “reduced”.

Q: What about the “dysregulated ROS and Ca2+ signaling in DMD muscle fibers” value (mdx muscle fibers; in vitro, FIG. 1) of the same compound?
A: The value was “normalized”.

Q: What about the “X-ROS (DFF signal) increase in mdx muscle fibers” value (mdx muscle fibers; mdx muscle fibers, FIG. 1B) of the same compound?
A: The value was “blunted”.

Q: What about the “force loss / contraction injury after eccentric contractions” value (mdx mice [1]) of the same compound?
A: The value was “reduced contraction injury; also recorded: significant protection from force loss”.

Q: And the “cardiac death and arrhythmia” value (mdx mice [2]; mdx mice after isoproterenol cardiac stress)?
A: Its value is “prevents cardiac death and arrhythmia”.

Q: And the survival (mdx mice [2]; mdx mice after isoproterenol cardiac stress (untreated mdx 10% survival))?
A: Its survival is 90%.

Q: And the “cardiac integrity (histological analysis, Evan's blue)” value (mdx mice [2]; mdx mice, FIGS. 5C and 5D)?
A: Its value is “significant preservations of cardiac integrity”.

Q: And the “increase in cardiac workload” value (mdx mice [2]; mdx mice, compared to untreated animals)?
A: The value was “supports the increase in cardiac workload significantly”.

Q: What about the “microtubule depolymerization (microtubule area normalized to number of nuclei)” value (OCY-293 cells) of the same compound?
A: The value was “rapid depolymerization at low concentrations”.

Q: And the “therapeutic window: lethal dose” value ([3]; in vivo)?
A: Its value is 16-30 × therapeutic dose.

Q: And the “absorption, median” value ([3]; oral)?
A: Its value is 45%.

Q: And the half-life ([3]; orally dosed)?
A: Its half-life is 1 to 2.7 h.

Q: What about the “time of peak plasma concentration” value ([3]; orally dosed) of the same compound?
A: Its value is 30 to 90 min.

Q: Which “microtubule depolymerization (microtubule area normalized to number of nuclei)” value (OCY-293 cells) does the source give for `CCCCCCCCCCCCCCCC(=O)OCOC(=O)N(C)[C@H]1CCc2cc(OC)c(OC)c(OC)c2-c2ccc(OC)c(=O)cc21` [compound 10] here?
A: Its value is “dampened depolymerization at higher concentrations only”.

Q: For `COc1cc(C(C)=O)ccc1O` [apocynin], which “force loss / contraction injury after eccentric contractions” value (mdx mice [1]) is on record?
A: Its value is “significant protection from force loss”.
